# Tested on: not listed separately
# Assay: Cytotoxicity against rat ASK cells assessed as reduction in cell viability by SRB assay
# Format: functional, cell-based
row,SMILES,IC50 [µM]
1,C=C1[C@@H](OC(C)=O)C[C@@H]2[C@](C)(CO[Si](C)(C)C(C)(C)C)[C@H](OC(C)=O)CC[C@@]2(C)[C@@H]1C[C@@H](Nc1cccc(OC)c1)C1=CCOC1=O,39.7
2,C=C1[C@@H](OC(C)=O)C[C@@H]2[C@](C)(COC=O)[C@H](OC(C)=O)CC[C@@]2(C)[C@@H]1C[C@@H](Nc1ccc(F)cc1)C1=CCOC1=O,38.6
3,C=C1[C@@H](OC(C)=O)C[C@@H]2[C@](C)(COC=O)[C@H](OC(C)=O)CC[C@@]2(C)[C@@H]1C[C@@H](Nc1cccc(F)c1)C1=CCOC1=O,35.8
4,C=C1[C@@H](OC(C)=O)C[C@@H]2[C@](C)(CO[Si](C)(C)C(C)(C)C)[C@H](OC(C)=O)CC[C@@]2(C)[C@@H]1C[C@@H](Nc1ccc(OC)c(OC)c1)C1=CCOC1=O,4.95
5,C=C1[C@@H](OC(C)=O)C[C@@H]2[C@](C)(COC=O)[C@H](OC(C)=O)CC[C@@]2(C)[C@@H]1C[C@@H](Nc1ccc(OC)cc1)C1=CCOC1=O,> 50
6,C=C1CC[C@@H]2[C@](C)(CO[Si](C)(C)C(C)(C)C)[C@H](OC(C)=O)CC[C@@]2(C)[C@@H]1C/C=C1/C(=O)OC[C@H]1OC(C)=O,2.41
7,C=C1[C@@H](OC(C)=O)C[C@@H]2[C@](C)(COC=O)[C@H](OC(C)=O)CC[C@@]2(C)[C@@H]1C[C@@H](Nc1ccc(Br)cc1)C1=CCOC1=O,49.9

# Tested on: HT-29
# Assay: Cytotoxicity against human HT-29 cells assessed as reduction in cell viability by SRB assay
# Format: functional, cell-based
row,SMILES,IC50 [µM]
1,C=C1[C@@H](OC(C)=O)C[C@@H]2[C@](C)(CO[Si](C)(C)C(C)(C)C)[C@H](OC(C)=O)CC[C@@]2(C)[C@@H]1C[C@@H](Nc1cccc(OC)c1)C1=CCOC1=O,> 50
2,C=C1[C@@H](OC(C)=O)C[C@@H]2[C@](C)(COC=O)[C@H](OC(C)=O)CC[C@@]2(C)[C@@H]1C[C@@H](Nc1ccc(F)cc1)C1=CCOC1=O,20.5
3,C=C1[C@@H](OC(C)=O)C[C@@H]2[C@](C)(COC=O)[C@H](OC(C)=O)CC[C@@]2(C)[C@@H]1C[C@@H](Nc1cccc(F)c1)C1=CCOC1=O,9.41
4,C=C1[C@@H](OC(C)=O)C[C@@H]2[C@](C)(CO[Si](C)(C)C(C)(C)C)[C@H](OC(C)=O)CC[C@@]2(C)[C@@H]1C[C@@H](Nc1ccc(OC)c(OC)c1)C1=CCOC1=O,5.33
5,C=C1[C@@H](OC(C)=O)C[C@@H]2[C@](C)(COC=O)[C@H](OC(C)=O)CC[C@@]2(C)[C@@H]1C[C@@H](Nc1ccc(OC)cc1)C1=CCOC1=O,25.4
6,C=C1CC[C@@H]2[C@](C)(CO[Si](C)(C)C(C)(C)C)[C@H](OC(C)=O)CC[C@@]2(C)[C@@H]1C/C=C1/C(=O)OC[C@H]1OC(C)=O,4.69
7,C=C1[C@@H](OC(C)=O)C[C@@H]2[C@](C)(COC=O)[C@H](OC(C)=O)CC[C@@]2(C)[C@@H]1C[C@@H](Nc1ccc(Br)cc1)C1=CCOC1=O,13.2

# Tested on: not listed separately
# Assay: Cytotoxicity against human K213 cells assessed as reduction in cell viability by SRB assay
# Format: functional, cell-based
row,SMILES,IC50 [µM]
1,C=C1[C@@H](OC(C)=O)C[C@@H]2[C@](C)(CO[Si](C)(C)C(C)(C)C)[C@H](OC(C)=O)CC[C@@]2(C)[C@@H]1C[C@@H](Nc1cccc(OC)c1)C1=CCOC1=O,40.1
2,C=C1[C@@H](OC(C)=O)C[C@@H]2[C@](C)(COC=O)[C@H](OC(C)=O)CC[C@@]2(C)[C@@H]1C[C@@H](Nc1ccc(F)cc1)C1=CCOC1=O,30.2
3,C=C1[C@@H](OC(C)=O)C[C@@H]2[C@](C)(COC=O)[C@H](OC(C)=O)CC[C@@]2(C)[C@@H]1C[C@@H](Nc1cccc(F)c1)C1=CCOC1=O,27.2
4,C=C1[C@@H](OC(C)=O)C[C@@H]2[C@](C)(CO[Si](C)(C)C(C)(C)C)[C@H](OC(C)=O)CC[C@@]2(C)[C@@H]1C[C@@H](Nc1ccc(OC)c(OC)c1)C1=CCOC1=O,5.15
5,C=C1[C@@H](OC(C)=O)C[C@@H]2[C@](C)(COC=O)[C@H](OC(C)=O)CC[C@@]2(C)[C@@H]1C[C@@H](Nc1ccc(OC)cc1)C1=CCOC1=O,40.9
6,C=C1CC[C@@H]2[C@](C)(CO[Si](C)(C)C(C)(C)C)[C@H](OC(C)=O)CC[C@@]2(C)[C@@H]1C/C=C1/C(=O)OC[C@H]1OC(C)=O,38.7
7,C=C1[C@@H](OC(C)=O)C[C@@H]2[C@](C)(COC=O)[C@H](OC(C)=O)CC[C@@]2(C)[C@@H]1C[C@@H](Nc1ccc(Br)cc1)C1=CCOC1=O,25.4

# Tested on: KB
# Assay: Cytotoxicity against human KB cells assessed as reduction in cell viability by SRB assay
# Format: functional, cell-based
row,SMILES,IC50 [µM]
1,C=C1[C@@H](OC(C)=O)C[C@@H]2[C@](C)(CO[Si](C)(C)C(C)(C)C)[C@H](OC(C)=O)CC[C@@]2(C)[C@@H]1C[C@@H](Nc1cccc(OC)c1)C1=CCOC1=O,45.2
2,C=C1[C@@H](OC(C)=O)C[C@@H]2[C@](C)(COC=O)[C@H](OC(C)=O)CC[C@@]2(C)[C@@H]1C[C@@H](Nc1ccc(F)cc1)C1=CCOC1=O,22.9
3,C=C1[C@@H](OC(C)=O)C[C@@H]2[C@](C)(COC=O)[C@H](OC(C)=O)CC[C@@]2(C)[C@@H]1C[C@@H](Nc1cccc(F)c1)C1=CCOC1=O,28.6
4,C=C1[C@@H](OC(C)=O)C[C@@H]2[C@](C)(CO[Si](C)(C)C(C)(C)C)[C@H](OC(C)=O)CC[C@@]2(C)[C@@H]1C[C@@H](Nc1ccc(OC)c(OC)c1)C1=CCOC1=O,5.8
5,C=C1[C@@H](OC(C)=O)C[C@@H]2[C@](C)(COC=O)[C@H](OC(C)=O)CC[C@@]2(C)[C@@H]1C[C@@H](Nc1ccc(OC)cc1)C1=CCOC1=O,32.7
6,C=C1CC[C@@H]2[C@](C)(CO[Si](C)(C)C(C)(C)C)[C@H](OC(C)=O)CC[C@@]2(C)[C@@H]1C/C=C1/C(=O)OC[C@H]1OC(C)=O,5.05
7,C=C1[C@@H](OC(C)=O)C[C@@H]2[C@](C)(COC=O)[C@H](OC(C)=O)CC[C@@]2(C)[C@@H]1C[C@@H](Nc1ccc(Br)cc1)C1=CCOC1=O,24

# Tested on: MCF7
# Assay: Cytotoxicity against human MCF7 cells assessed as reduction in cell viability by SRB assay
# Format: functional, cell-based
row,SMILES,IC50 [µM]
1,C=C1[C@@H](OC(C)=O)C[C@@H]2[C@](C)(CO[Si](C)(C)C(C)(C)C)[C@H](OC(C)=O)CC[C@@]2(C)[C@@H]1C[C@@H](Nc1cccc(OC)c1)C1=CCOC1=O,28.1
2,C=C1[C@@H](OC(C)=O)C[C@@H]2[C@](C)(COC=O)[C@H](OC(C)=O)CC[C@@]2(C)[C@@H]1C[C@@H](Nc1ccc(F)cc1)C1=CCOC1=O,12.4
3,C=C1[C@@H](OC(C)=O)C[C@@H]2[C@](C)(COC=O)[C@H](OC(C)=O)CC[C@@]2(C)[C@@H]1C[C@@H](Nc1cccc(F)c1)C1=CCOC1=O,14.1
4,C=C1[C@@H](OC(C)=O)C[C@@H]2[C@](C)(CO[Si](C)(C)C(C)(C)C)[C@H](OC(C)=O)CC[C@@]2(C)[C@@H]1C[C@@H](Nc1ccc(OC)c(OC)c1)C1=CCOC1=O,4.31
5,C=C1[C@@H](OC(C)=O)C[C@@H]2[C@](C)(COC=O)[C@H](OC(C)=O)CC[C@@]2(C)[C@@H]1C[C@@H](Nc1ccc(OC)cc1)C1=CCOC1=O,24.2
6,C=C1CC[C@@H]2[C@](C)(CO[Si](C)(C)C(C)(C)C)[C@H](OC(C)=O)CC[C@@]2(C)[C@@H]1C/C=C1/C(=O)OC[C@H]1OC(C)=O,4.84
7,C=C1[C@@H](OC(C)=O)C[C@@H]2[C@](C)(COC=O)[C@H](OC(C)=O)CC[C@@]2(C)[C@@H]1C[C@@H](Nc1ccc(Br)cc1)C1=CCOC1=O,11.4

# Tested on: A549
# Assay: Cytotoxicity against human A549 cells assessed as reduction in cell viability by SRB assay
# Format: functional, cell-based
row,SMILES,IC50 [µM]
1,C=C1[C@@H](OC(C)=O)C[C@@H]2[C@](C)(CO[Si](C)(C)C(C)(C)C)[C@H](OC(C)=O)CC[C@@]2(C)[C@@H]1C[C@@H](Nc1cccc(OC)c1)C1=CCOC1=O,17.2
2,C=C1[C@@H](OC(C)=O)C[C@@H]2[C@](C)(COC=O)[C@H](OC(C)=O)CC[C@@]2(C)[C@@H]1C[C@@H](Nc1ccc(F)cc1)C1=CCOC1=O,21.2
3,C=C1[C@@H](OC(C)=O)C[C@@H]2[C@](C)(COC=O)[C@H](OC(C)=O)CC[C@@]2(C)[C@@H]1C[C@@H](Nc1cccc(F)c1)C1=CCOC1=O,23.2
4,C=C1[C@@H](OC(C)=O)C[C@@H]2[C@](C)(CO[Si](C)(C)C(C)(C)C)[C@H](OC(C)=O)CC[C@@]2(C)[C@@H]1C[C@@H](Nc1ccc(OC)c(OC)c1)C1=CCOC1=O,4.87
5,C=C1[C@@H](OC(C)=O)C[C@@H]2[C@](C)(COC=O)[C@H](OC(C)=O)CC[C@@]2(C)[C@@H]1C[C@@H](Nc1ccc(OC)cc1)C1=CCOC1=O,28.9
6,C=C1CC[C@@H]2[C@](C)(CO[Si](C)(C)C(C)(C)C)[C@H](OC(C)=O)CC[C@@]2(C)[C@@H]1C/C=C1/C(=O)OC[C@H]1OC(C)=O,3.99
7,C=C1[C@@H](OC(C)=O)C[C@@H]2[C@](C)(COC=O)[C@H](OC(C)=O)CC[C@@]2(C)[C@@H]1C[C@@H](Nc1ccc(Br)cc1)C1=CCOC1=O,15.8

# Tested on: not listed separately
# Assay: Cytotoxicity against human K055 cells assessed as reduction in cell viability by SRB assay
# Format: functional, cell-based
row,SMILES,IC50 [µM]
1,C=C1[C@@H](OC(C)=O)C[C@@H]2[C@](C)(CO[Si](C)(C)C(C)(C)C)[C@H](OC(C)=O)CC[C@@]2(C)[C@@H]1C[C@@H](Nc1cccc(OC)c1)C1=CCOC1=O,44
2,C=C1[C@@H](OC(C)=O)C[C@@H]2[C@](C)(COC=O)[C@H](OC(C)=O)CC[C@@]2(C)[C@@H]1C[C@@H](Nc1ccc(F)cc1)C1=CCOC1=O,25.8
3,C=C1[C@@H](OC(C)=O)C[C@@H]2[C@](C)(COC=O)[C@H](OC(C)=O)CC[C@@]2(C)[C@@H]1C[C@@H](Nc1cccc(F)c1)C1=CCOC1=O,29.2
4,C=C1[C@@H](OC(C)=O)C[C@@H]2[C@](C)(CO[Si](C)(C)C(C)(C)C)[C@H](OC(C)=O)CC[C@@]2(C)[C@@H]1C[C@@H](Nc1ccc(OC)c(OC)c1)C1=CCOC1=O,5.73
5,C=C1[C@@H](OC(C)=O)C[C@@H]2[C@](C)(COC=O)[C@H](OC(C)=O)CC[C@@]2(C)[C@@H]1C[C@@H](Nc1ccc(OC)cc1)C1=CCOC1=O,33.2
6,C=C1CC[C@@H]2[C@](C)(CO[Si](C)(C)C(C)(C)C)[C@H](OC(C)=O)CC[C@@]2(C)[C@@H]1C/C=C1/C(=O)OC[C@H]1OC(C)=O,44.3
7,C=C1[C@@H](OC(C)=O)C[C@@H]2[C@](C)(COC=O)[C@H](OC(C)=O)CC[C@@]2(C)[C@@H]1C[C@@H](Nc1ccc(Br)cc1)C1=CCOC1=O,24.4

# Tested on: not listed separately
# Assay: Cytotoxicity against human P388 cells assessed as reduction in cell viability by SRB assay
# Format: functional, cell-based
row,SMILES,IC50 [µM]
1,C=C1[C@@H](OC(C)=O)C[C@@H]2[C@](C)(CO[Si](C)(C)C(C)(C)C)[C@H](OC(C)=O)CC[C@@]2(C)[C@@H]1C[C@@H](Nc1cccc(OC)c1)C1=CCOC1=O,27.8
2,C=C1[C@@H](OC(C)=O)C[C@@H]2[C@](C)(COC=O)[C@H](OC(C)=O)CC[C@@]2(C)[C@@H]1C[C@@H](Nc1ccc(F)cc1)C1=CCOC1=O,6.31
3,C=C1[C@@H](OC(C)=O)C[C@@H]2[C@](C)(COC=O)[C@H](OC(C)=O)CC[C@@]2(C)[C@@H]1C[C@@H](Nc1cccc(F)c1)C1=CCOC1=O,5.53
4,C=C1[C@@H](OC(C)=O)C[C@@H]2[C@](C)(CO[Si](C)(C)C(C)(C)C)[C@H](OC(C)=O)CC[C@@]2(C)[C@@H]1C[C@@H](Nc1ccc(OC)c(OC)c1)C1=CCOC1=O,4.53
5,C=C1[C@@H](OC(C)=O)C[C@@H]2[C@](C)(COC=O)[C@H](OC(C)=O)CC[C@@]2(C)[C@@H]1C[C@@H](Nc1ccc(OC)cc1)C1=CCOC1=O,7.9
6,C=C1CC[C@@H]2[C@](C)(CO[Si](C)(C)C(C)(C)C)[C@H](OC(C)=O)CC[C@@]2(C)[C@@H]1C/C=C1/C(=O)OC[C@H]1OC(C)=O,0.3
7,C=C1[C@@H](OC(C)=O)C[C@@H]2[C@](C)(COC=O)[C@H](OC(C)=O)CC[C@@]2(C)[C@@H]1C[C@@H](Nc1ccc(Br)cc1)C1=CCOC1=O,4.95
